Measured values: ChEMBL document CHEMBL4354881, “Optimization of Potent ATAD2 and CECR2 Bromodomain Inhibitors with an Atypical Binding Mode” (J Med Chem, 2020)
In brackets after ≈: the same amount, converted by molar mass.

What was measured:
[1] = target: Bromodomain-containing protein 4 (Homo sapiens, UniProt O60885, Y390A); assay: Displacement of Alexa Fluor 647-labeled ligand from BRD4 BD1 Y390A mutant (1 to 477 residue) (unknown origin) measured after 30 mins by TR-FRET assay
[2] = target: T1, ATPase family AAA domain-containing protein 2 (Homo sapiens, UniProt Q6PL18); assay: Displacement of Alexa Fluor 488-labeled ligand from FLAG-6His-Tev-fused ATAD2 (981 to 1121 residue) (unknown origin) measured after 30 mins by TR-FRET assay
T1 sequence (Q6PL18 whole entry): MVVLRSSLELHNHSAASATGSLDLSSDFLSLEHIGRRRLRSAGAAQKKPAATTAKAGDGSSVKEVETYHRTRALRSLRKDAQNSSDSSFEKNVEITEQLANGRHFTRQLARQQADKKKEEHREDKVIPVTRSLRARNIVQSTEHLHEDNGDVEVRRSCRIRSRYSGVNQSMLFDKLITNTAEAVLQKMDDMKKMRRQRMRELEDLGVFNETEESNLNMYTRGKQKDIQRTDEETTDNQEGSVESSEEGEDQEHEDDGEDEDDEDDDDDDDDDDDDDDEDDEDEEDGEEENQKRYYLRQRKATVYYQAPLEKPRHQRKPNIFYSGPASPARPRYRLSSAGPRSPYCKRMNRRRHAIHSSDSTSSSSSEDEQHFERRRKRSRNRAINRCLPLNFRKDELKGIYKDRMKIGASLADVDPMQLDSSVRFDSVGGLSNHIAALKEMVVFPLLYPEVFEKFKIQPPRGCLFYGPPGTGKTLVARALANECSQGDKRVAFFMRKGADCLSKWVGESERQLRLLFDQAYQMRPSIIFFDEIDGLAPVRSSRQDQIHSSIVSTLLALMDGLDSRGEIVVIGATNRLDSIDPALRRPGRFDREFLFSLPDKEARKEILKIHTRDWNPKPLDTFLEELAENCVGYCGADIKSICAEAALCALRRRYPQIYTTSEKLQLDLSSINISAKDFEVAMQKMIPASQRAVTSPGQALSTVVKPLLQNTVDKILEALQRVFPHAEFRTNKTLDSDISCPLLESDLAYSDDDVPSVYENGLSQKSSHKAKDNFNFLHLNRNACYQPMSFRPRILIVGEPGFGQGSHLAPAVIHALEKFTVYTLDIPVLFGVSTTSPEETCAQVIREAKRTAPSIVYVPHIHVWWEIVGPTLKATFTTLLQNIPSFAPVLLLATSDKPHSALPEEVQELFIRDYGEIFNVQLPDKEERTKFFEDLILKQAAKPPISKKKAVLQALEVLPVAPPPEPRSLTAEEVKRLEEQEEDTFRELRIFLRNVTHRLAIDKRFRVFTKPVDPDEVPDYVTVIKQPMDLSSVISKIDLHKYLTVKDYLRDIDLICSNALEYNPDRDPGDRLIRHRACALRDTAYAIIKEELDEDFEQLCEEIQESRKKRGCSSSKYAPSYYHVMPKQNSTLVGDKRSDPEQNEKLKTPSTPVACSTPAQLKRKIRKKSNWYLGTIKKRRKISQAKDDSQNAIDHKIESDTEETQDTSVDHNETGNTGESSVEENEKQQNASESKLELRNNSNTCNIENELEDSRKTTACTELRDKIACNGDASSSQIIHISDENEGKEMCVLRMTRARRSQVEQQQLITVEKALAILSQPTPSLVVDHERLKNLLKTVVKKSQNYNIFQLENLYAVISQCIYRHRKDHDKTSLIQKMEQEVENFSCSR

[3] = Permeability of the compound by artificial lipid membrane-based method; type: ADME; conditions: not told; read-out: permeability
[4] = target: Bromodomain-containing protein 4 (Homo sapiens, UniProt O60885); assay: Displacement of Alexa Fluor 647-labeled ligand from BRD4 BD2 (unknown origin) measured after 30 mins by TR-FRET assay
[5] = target: T2, Chromatin remodeling regulator CECR2 (Homo sapiens, UniProt Q9BXF3); assay: Binding affinity to human partial length CECR2 (P423 to D543 residues) expressed in bacterial expression system by BROMOscan assay
[6] = target: Histone acetyltransferase KAT2A (Homo sapiens, UniProt Q92830); assay: Binding affinity to human partial length GCN5L2 (E726 to K837 residues) expressed in bacterial expression system by BROMOscan assay
[7] = target: T2, Chromatin remodeling regulator CECR2; assay: Inhibition of BSP-BODIPY binding to Nanoluc-tagged CECR2 (unknown origin) expressed in HEK293 cells measured after 4 to 6 hrs by NanoBRET assay; type: cell-based
[8] = target: T2, Chromatin remodeling regulator CECR2; assay: Displacement of Alexa Fluor 647-labeled GSK tracer from FLAG-6His-Tev-fused CECR2 (424 to 543 residue) (unknown origin) measured after 15 mins by TR-FRET assay
[9] = Lipophilicity, log D of the compound at pH 7.4 by chromatographic method; type: physicochemical; conditions: buffer
[10] = Solubility of the compound by CAD method; type: physicochemical
[11] = species on record: Homo sapiens; assay: Selectivity ratio of IC50 for displacement of Alexa Fluor 488-labeled ligand from FLAG-6His-Tev-fused ATAD2 (981 to 1121 residue) (unknown origin) to IC50 for displacement of Alexa Fluor 647-labeled GSK tracer from FLAG-6His-Tev-fused CECR2 (424 to 543 residue) (unknown origin)
[12] = target: T2, Chromatin remodeling regulator CECR2; assay: Binding affinity to CECR2 (unknown origin) by ITC analysis

T2 sequence (Q9BXF3 whole entry, the tested form may be a part): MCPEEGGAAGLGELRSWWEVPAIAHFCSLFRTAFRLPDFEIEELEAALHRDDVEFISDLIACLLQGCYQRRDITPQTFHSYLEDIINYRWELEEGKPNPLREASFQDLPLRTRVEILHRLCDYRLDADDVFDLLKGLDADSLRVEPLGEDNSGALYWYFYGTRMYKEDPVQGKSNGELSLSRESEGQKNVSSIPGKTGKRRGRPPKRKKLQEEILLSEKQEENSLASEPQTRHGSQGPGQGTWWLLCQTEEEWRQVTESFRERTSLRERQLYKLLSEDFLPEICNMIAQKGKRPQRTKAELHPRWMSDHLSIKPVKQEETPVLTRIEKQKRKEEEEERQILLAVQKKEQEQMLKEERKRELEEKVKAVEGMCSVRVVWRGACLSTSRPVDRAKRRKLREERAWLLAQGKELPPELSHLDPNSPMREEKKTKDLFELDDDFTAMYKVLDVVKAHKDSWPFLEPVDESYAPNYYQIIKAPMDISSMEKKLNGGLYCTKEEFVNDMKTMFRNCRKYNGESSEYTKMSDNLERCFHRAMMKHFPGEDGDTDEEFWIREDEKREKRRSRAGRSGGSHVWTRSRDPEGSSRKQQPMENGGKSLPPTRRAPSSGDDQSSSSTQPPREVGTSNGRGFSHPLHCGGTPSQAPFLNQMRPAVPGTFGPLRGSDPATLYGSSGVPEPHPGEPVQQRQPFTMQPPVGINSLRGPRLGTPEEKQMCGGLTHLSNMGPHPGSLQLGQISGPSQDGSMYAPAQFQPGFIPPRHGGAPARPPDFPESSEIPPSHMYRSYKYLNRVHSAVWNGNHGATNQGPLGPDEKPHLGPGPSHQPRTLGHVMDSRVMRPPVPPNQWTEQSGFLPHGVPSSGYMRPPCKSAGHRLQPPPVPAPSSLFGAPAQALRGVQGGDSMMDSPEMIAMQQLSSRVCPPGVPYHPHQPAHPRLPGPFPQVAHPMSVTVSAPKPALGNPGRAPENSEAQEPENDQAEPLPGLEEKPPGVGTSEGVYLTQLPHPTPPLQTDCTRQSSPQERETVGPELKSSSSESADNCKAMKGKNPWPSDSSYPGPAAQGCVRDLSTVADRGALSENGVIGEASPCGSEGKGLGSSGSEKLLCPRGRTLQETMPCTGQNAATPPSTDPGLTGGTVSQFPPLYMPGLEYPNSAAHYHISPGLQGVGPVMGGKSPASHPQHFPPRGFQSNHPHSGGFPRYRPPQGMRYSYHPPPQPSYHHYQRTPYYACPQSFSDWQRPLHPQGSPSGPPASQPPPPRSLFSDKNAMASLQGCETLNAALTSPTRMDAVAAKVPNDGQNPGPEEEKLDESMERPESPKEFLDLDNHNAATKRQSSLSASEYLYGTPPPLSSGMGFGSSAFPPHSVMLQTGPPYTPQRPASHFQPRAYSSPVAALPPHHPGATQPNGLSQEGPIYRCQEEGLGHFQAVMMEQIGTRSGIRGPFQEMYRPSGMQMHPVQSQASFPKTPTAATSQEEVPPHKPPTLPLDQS
Histone acetyltransferase KAT2A, sequence (Q92830 whole entry, the tested form may be a part): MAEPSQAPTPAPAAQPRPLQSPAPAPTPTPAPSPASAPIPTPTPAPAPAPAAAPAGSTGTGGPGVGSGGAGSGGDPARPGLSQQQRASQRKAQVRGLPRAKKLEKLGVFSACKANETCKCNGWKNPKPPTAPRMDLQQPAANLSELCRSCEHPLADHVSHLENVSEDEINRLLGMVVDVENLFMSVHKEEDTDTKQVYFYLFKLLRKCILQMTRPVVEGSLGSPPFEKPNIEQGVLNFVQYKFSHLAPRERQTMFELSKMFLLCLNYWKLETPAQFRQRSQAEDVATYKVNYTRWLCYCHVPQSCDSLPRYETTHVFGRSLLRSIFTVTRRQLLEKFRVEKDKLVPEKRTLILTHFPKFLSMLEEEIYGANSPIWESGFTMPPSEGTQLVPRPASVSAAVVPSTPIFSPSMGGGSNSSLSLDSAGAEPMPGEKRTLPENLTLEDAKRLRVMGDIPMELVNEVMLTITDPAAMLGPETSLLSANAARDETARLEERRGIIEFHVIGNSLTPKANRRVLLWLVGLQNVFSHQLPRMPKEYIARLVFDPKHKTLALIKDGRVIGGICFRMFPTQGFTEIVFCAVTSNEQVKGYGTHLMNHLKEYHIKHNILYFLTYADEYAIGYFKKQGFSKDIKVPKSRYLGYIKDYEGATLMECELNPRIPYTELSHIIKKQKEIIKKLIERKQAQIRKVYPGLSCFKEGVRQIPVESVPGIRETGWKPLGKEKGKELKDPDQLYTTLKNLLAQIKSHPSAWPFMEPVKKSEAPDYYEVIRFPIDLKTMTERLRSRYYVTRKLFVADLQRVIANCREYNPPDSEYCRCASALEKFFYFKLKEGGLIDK

Row | SMILES | IC50 [1] | IC50 [2] | Papp [3] | IC50 [4] | Kd [5] | Kd [6] | IC50 [7] | IC50 [8] | chromatographic logD [9] | solubility [10] | Ratio IC50 [11] | Kd [12]
1 | CN1CCc2c(nnn2CC(=O)Nc2ccc(Cl)c(S(=O)(=O)N3CC[C@H](C4CC4)C3)c2)C1 | 25100 nM | 3160 nM | 11.1 ×10⁻⁶ cm/s | 10000 nM | 7.94 nM | 501 nM | 50.1 nM | 20 nM | – | – | – | –
2 | CC1NC(=O)N(CC(=O)Nc2ccc(Cl)c(S(=O)(=O)N3CCCC3)c2)C1=O (racemic) | > 50100 nM | 1260 nM | 1.2 ×10⁻⁶ cm/s | – | – | – | – | 6310 nM | – | – | – | –
3 | CN(C)CC1CCN(S(=O)(=O)c2cc(NC(=O)CN3C(=O)CNC3=O)ccc2Cl)C1 (stereo not given) | > 50100 nM | 1000 nM | < 0.3 ×10⁻⁶ cm/s | – | – | – | – | 3980 nM | – | – | – | –

The next lines start with the values.

Row | IC50 [1] | IC50 [2] | Papp [3] | IC50 [4] | Kd [5] | Kd [6] | IC50 [7] | IC50 [8] | chromatographic logD [9] | solubility [10] | Ratio IC50 [11] | Kd [12] | SMILES
4 | 12600 nM | 2000 nM | 14 ×10⁻⁶ cm/s | 5010 nM | 10 nM | 158 nM | 39.8 nM | – | – | – | – | – | CN1CCc2c(nnn2CC(=O)Nc2ccc(Br)c(S(=O)(=O)N3CC[C@H](C4CC4)C3)c2)C1
5 | 31600 nM | 2510 nM | – | – | – | – | – | 158 nM | 5.3 | 49 µg/mL (≈ 86.7 µM) | 16 | – | C[C@H]1CCN(S(=O)(=O)c2cc(NC(=O)Cn3nnc4c3CCN(CC(F)(F)F)C4)ccc2Br)C1
6 | – | – | – | – | – | – | – | – | – | – | – | 10 nM | CN(C)CCCOc1ccc(-c2cc(NCCCn3cccn3)nc(S(C)(=O)=O)n2)cc1
